Experimental data taken from patent US10662203B2, “Pyrido[2,3-b]indole compounds for the treatment and prophylaxis of bacterial infection” (Hoffmann-La Roche Inc., priority 2017, dated 2020).

Experiments:
Assay in all cases: 50% growth inhibitory concentration (IC50) determination assay
Format in all cases: cell-based
[1] = test system: K. pneumoniae (ATCC10031); details: Klebsiella pneumoniae, Iso-Sensitest broth, 0.098 = detection limit
Protocol: (§1) Stock compounds in DMSO were serially two-fold diluted (range from 50 to 0.097 μM final concentration) in 384 wells microtiter plates and inoculated with 49 μL the bacterial suspension in Iso-Sensitest broth medium to have a final cell concentration of ˜5×10^5 CFU/mL in a final volume/well of 50 μL/well. Microtiter plates were incubated at 35±2° C. Bacterial cell growth was determined with the measurement of optical density at λ=600 nm each 20 minutes over a time course of 16 h. […] GP-6 (Example 4.131 disclosed in WO 2012/125746 A1) was used as the reference compound in Table 6-8. […] The data of IC50 over S. aureus (ATCC29213), K. pneumoniae (ATCC10031), and A. baumannii (ATCC17978) are illustrated in Table 6.

S. aureus (ATCC29213) = details: Staphylococcus aureus, Iso-Sensitest broth, 0.098 = detection limit
Protocol: as §1

A. baumannii (ATCC17978) = details: Acinetobacter baumannii, ATCC17978, A. baumannii ATCC17978; Iso-Sensitest broth; 0.098 = detection limit
Protocol: as §1

| Compound | IC50 [1] | IC50 (S. aureus (ATCC29213)) | IC50 (A. baumannii (ATCC17978)) |
| --- | --- | --- | --- |
| CNc1cc(F)cc2c1[nH]c1ncc(-c3cnc4c(c3)c(=O)c(C(=O)O)cn4C)c(N3CCCN(C)CC3)c12 [Example 1.185] | < 0.098 µM | 0.321 µM | 0.524 µM |
| CNc1cc(F)c(F)c2c1[nH]c1ncc(-c3cnc4c(c3)c(=O)c(C(=O)O)cn4NC)c(N3CC[C@H]4CCN(C)C4C3)c12 (stereo partly drawn) [Example 1.199] | < 0.098 µM | < 0.098 µM | 0.151 µM |
| CNc1cc(F)c(F)c2c1[nH]c1ncc(-c3cnc4c(c3)c(=O)c(C(=O)O)cn4C)c(N3CCN(C4CC4)CC3)c12 [Example 1.204] | < 0.098 µM | < 0.098 µM | 0.201 µM |
| CNc1cc(F)c(F)c2c1[nH]c1ncc(-c3cnc4c(c3)c(=O)c(C(=O)O)cn4C)c(N3CCCC3)c12 [Example 1.208] | 0.16 µM | < 0.098 µM | 0.78 µM |
| CNc1cc(F)cc2c1[nH]c1ncc(-c3cnc4c(c3)c(=O)c(C(=O)O)cn4NC)c(N3CC4[C@H](CCN4C)C3)c12 (stereo partly drawn) [Example 1.210] | < 0.098 µM | < 0.098 µM | < 0.098 µM |
| CNc1cc(F)c(F)c2c1[nH]c1ncc(-c3cnc4c(c3)c(=O)c(C(=O)O)cn4C)c(N3CC4[C@H](CC[C@H]4CN(C)C)C3)c12 (stereo partly drawn) [Example 1.218] | < 0.098 µM | < 0.098 µM | 0.497 µM |
| CNc1cc(F)c(F)c2c1[nH]c1ncc(-c3cnc4c(c3)c(=O)c(C(=O)O)cn4C)c(N3CCN(C)CC3)c12 [Example 1.226] | < 0.098 µM | 0.11 µM | 0.207 µM |
| CCN1CCN(c2c(-c3cnc4c(c3)c(=O)c(C(=O)O)cn4C)cnc3[nH]c4c(NC)cc(F)c(F)c4c23)CC1 [Example 1.233] | < 0.098 µM | 0.169 µM | 0.3 µM |
| CNc1cc(F)c(F)c2c1[nH]c1ncc(-c3cnc4c(c3)c(=O)c(C(=O)O)cn4C)c(N3CCN(C(C)C)CC3)c12 [Example 1.234] | < 0.098 µM | 0.283 µM | 0.821 µM |
| CNc1cc(F)c(F)c2c1[nH]c1ncc(-c3cnc4c(c3)c(=O)c(C(=O)O)cn4NC)c(N3CCC4(CCN4C)C3)c12 (stereo not drawn) [Example 1.238] | < 0.098 µM | < 0.098 µM | 0.308 µM |
| CNc1cc(F)c(F)c2c1[nH]c1ncc(-c3cnc4c(c3)c(=O)c(C(=O)O)cn4NC)c(N3CCC4(CCCN4C)C3)c12 (stereo not drawn) [Example 1.240] | < 0.098 µM | < 0.098 µM | 0.151 µM |
| CNc1cc(F)c(F)c2c1[nH]c1ncc(-c3cnc4c(c3)c(=O)c(C(=O)O)cn4[C@@H](C)CO)c(N3CCO[C@@H](C)C3)c12 [Example 1.250] | 0.14 µM | < 0.098 µM | 0.476 µM |
| CNc1cc(F)c(F)c2c1[nH]c1ncc(-c3cnc4c(c3)c(=O)c(C(=O)O)cn4C)c(N3CC4[C@H](CCN4CCO)C3)c12 (stereo partly drawn) [Example 1.261] | < 0.098 µM | < 0.098 µM | 0.215 µM |
| CNc1cc(F)c(Cl)c2c1[nH]c1ncc(-c3cnc4c(c3)c(=O)c(C(=O)O)cn4C)c(N3CC[C@H]4CN(C)CC43)c12 (stereo partly drawn) [Example 1.270] | < 0.098 µM | < 0.098 µM | 0.048 µM |
| CNc1cc(Cl)cc2c1[nH]c1ncc(-c3cnc4c(c3)c(=O)c(C(=O)O)cn4C)c(N3CC4C(N(C)C)CO[C@@H]4C3)c12 (stereo partly drawn) [Example 1.277] | < 0.098 µM | < 0.098 µM | 0.48 µM |
| CNc1cc(F)c(F)c2c1[nH]c1ncc(-c3cnc4c(c3)c(=O)c(C(=O)O)cn4NC)c(N3CC4[C@H](CC[C@H]4N(C)C)C3)c12 (stereo partly drawn) [Example 1.284] | < 0.098 µM | < 0.098 µM | 0.111 µM |

| Compound | IC50 [1] | IC50 (S. aureus (ATCC29213)) | IC50 (A. baumannii (ATCC17978)) |
| --- | --- | --- | --- |
| CNc1cc(F)c(F)c2c1[nH]c1ncc(-c3cnc4c(c3)c(=O)c(C(=O)O)cn4CCN(C)C)c(N3CCC(F)(F)C3)c12 [Example 2.02] | 0.167 µM | < 0.098 µM | 0.992 µM |
| CNc1cc(F)c(F)c2c1[nH]c1ncc(-c3cnc4c(c3)c(=O)c(C(=O)O)cn4C3CCN(C)C3)c(N3CCC(F)(F)C3)c12 (stereo not drawn) [Example 2.03] | < 0.098 µM | < 0.098 µM | 0.562 µM |
| CNc1cc(F)c(F)c2c1[nH]c1ncc(-c3cnc4c(c3)c(=O)c(C(=O)O)cn4NC)c(N3C[C@H]4OCCN(C)[C@H]4C3)c12 [Example 3.13A] | < 0.098 µM | < 0.098 µM | 0.152 µM |
| CNc1cc(F)c(F)c2c1[nH]c1ncc(-c3cnc4c(c3)c(=O)c(C(=O)O)cn4NC)c(N3C[C@@H]4OCCN(C)[C@@H]4C3)c12 [Example 3.13B] | < 0.098 µM | < 0.098 µM | 0.16 µM |
| CNc1cc(F)c(F)c2c1[nH]c1ncc(-c3cnc4c(c3)c(=O)c(C(=O)O)cn4C)c(N3C[C@H]4OCCN(C)[C@H]4C3)c12 [Example 3.14A] | < 0.098 µM | < 0.098 µM | 0.075 µM |
| CNc1cc(F)c(F)c2c1[nH]c1ncc(-c3cnc4c(c3)c(=O)c(C(=O)O)cn4C)c(N3C[C@@H]4OCCN(C)[C@@H]4C3)c12 [Example 3.14B] | < 0.098 µM | < 0.098 µM | 0.103 µM |
| CNc1cc(Cl)cc2c1[nH]c1ncc(-c3cnc4c(c3)c(=O)c(C(=O)O)cn4C)c(N3C[C@H]4CCN(C)[C@H]4C3)c12 [Example 3.15A] | < 0.098 µM | < 0.098 µM | 0.208 µM |
| CNc1cc(Cl)cc2c1[nH]c1ncc(-c3cnc4c(c3)c(=O)c(C(=O)O)cn4C)c(N3C[C@@H]4CCN(C)[C@@H]4C3)c12 [Example 3.15B] | < 0.098 µM | < 0.098 µM | 0.094 µM |
| CNc1cc(F)c(F)c2c1[nH]c1ncc(-c3cnc4c(c3)c(=O)c(C(=O)O)cn4C)c(N3CC[C@@]4(CN(C)CCO4)C3)c12 [Example 3.16A] | < 0.098 µM | < 0.098 µM | 0.161 µM |
| CNc1cc(F)c(F)c2c1[nH]c1ncc(-c3cnc4c(c3)c(=O)c(C(=O)O)cn4C)c(N3CC[C@]4(CN(C)CCO4)C3)c12 [Example 3.16B] | < 0.098 µM | < 0.098 µM | 0.19 µM |
| CNc1cc(F)cc2c1[nH]c1ncc(-c3cnc4c(c3)c(=O)c(C(=O)O)cn4C)c(N3C[C@H]4OCCN(C)[C@H]4C3)c12 [Example 3.22A] | < 0.098 µM | < 0.098 µM | 0.363 µM |
| CNc1cc(F)cc2c1[nH]c1ncc(-c3cnc4c(c3)c(=O)c(C(=O)O)cn4C)c(N3C[C@@H]4OCCN(C)[C@@H]4C3)c12 [Example 3.22B] | < 0.098 µM | < 0.098 µM | 0.256 µM |
| CNc1cc(F)c(F)c2c1[nH]c1ncc(-c3cnc4c(c3)c(=O)c(C(=O)O)cn4C)c(N3C[C@@H]4OCCN(C)[C@H]4C3)c12 [Example 3.24A] | < 0.098 µM | < 0.098 µM | 0.315 µM |
| CNc1cc(F)c(F)c2c1[nH]c1ncc(-c3cnc4c(c3)c(=O)c(C(=O)O)cn4C)c(N3C[C@@H]4[C@@H](C3)OCCN4C)c12 [Example 3.24B] | < 0.098 µM | < 0.098 µM | 0.371 µM |
| CNc1cc(F)c(F)c2c1[nH]c1ncc(-c3cnc4c(c3)c(=O)c(C(=O)O)cn4C)c(N3CCO[C@H](CN(C)C)C3)c12 [Example 4.02A, (R)-6-(4-(2-((dimethylamino)methyl)morpholino)-5,6-difluoro-8-(methylamino)-9H-pyrido[2,3-b]indol-3-yl)-1-methyl-4-oxo-1,4-dihydro-1,8-naphthyridine-3-carboxylic acid] | < 0.098 µM | 0.197 µM | 0.437 µM |
